The values below are quoted from earlier work in patent publication US20030021750A1, “Novel functional agents for magnetic resonance imaging” (priority 2001, published 2003).

For this data set the following is noted: thermodynamic stability of the Gd3+ chelate; background statement.

For `O=C([O-])CN(CCN(CC(=O)[O-])CC(=O)[O-])CCN(CC(=O)[O-])CC(=O)[O-].[Gd+3]` [Gd(DTPA)^2−], the “stability constant (K) / formation constant, logK” value is given as 22.4. With `O=C([O-])CN1CCN(CC(=O)[O-])CCN(CC(=O)[O-])CCN(CC(=O)[O-])CC1.[Gd+3]` [Gd-DOTA], the “stability constant (K) / formation constant, logK” value is recorded as 28.5.
